≈ marks a conversion by molar mass, not a printed value. Calls of active or inactive are those of the source. No cut-off for these calls is given here.
Key:
[1] = molecular target: Receptor-interacting serine/threonine-protein kinase 2 (Homo sapiens, UniProt O43353); assay: Inhibition of full length His-tagged RIPK2 (unknown origin) expressed in baculovirus expression system using fluorescent labelled ATP competitive ligand by fluorescent polarization based binding assay
[2] = molecular target: E3 ubiquitin-protein ligase XIAP/Receptor-interacting serine/threonine-protein kinase 2 (Homo sapiens, UniProt O43353+P98170); assay: Protac activity at IAP/RIPK2 in human whole blood assessed as inhibition of MDP-induced TNFalpha production by ELISA; type: tissue-based
[3] = molecular target: T1, Protein cereblon/Receptor-interacting serine/threonine-protein kinase 2 (Homo sapiens, UniProt O43353+Q96SW2); assay: Protac activity at CRBN/RIPK2 in human whole blood assessed as inhibition of MDP-induced TNFalpha production by ELISA; type: tissue-based
[4] = molecular target: T2, von Hippel-Lindau disease tumor suppressor/Receptor-interacting serine/threonine-protein kinase 2 (Homo sapiens, UniProt O43353+P40337); assay: Protac activity at VHL/RIPK2 in human whole blood assessed as inhibition of MDP-induced TNFalpha production by ELISA; type: tissue-based
[5] = molecular target: T2, von Hippel-Lindau disease tumor suppressor/Receptor-interacting serine/threonine-protein kinase 2; assay: Protac activity at VHL/RIPK2 in human THP-1 cells assessed as induction of RIPK2 degradation by measuring decrease in protein level incubated for 16 hrs by Western blot analysis; type: cell-based
[6] = Binding affinity to human His-thr XIAP BIR2 (124 to 240) domain expressed in Escherichia coli measured after 105 mins in dark by time-resolved fluorescence laser-equipped multimode plate reader
[7] = molecular target: E3 ubiquitin-protein ligase XIAP (Homo sapiens, UniProt P98170); assay: Binding affinity to human His-thr XIAP BIR3 (241 to 356) domain expressed in Escherichia coli measured after 105 mins in dark by time-resolved fluorescence laser-equipped multimode plate reader
[8] = molecular target: T1, Protein cereblon/Receptor-interacting serine/threonine-protein kinase 2; assay: Protac activity at CRBN/RIPK2 in human THP-1 cells assessed as induction of RIPK2 degradation by measuring decrease in protein level incubated for 18 hrs by capillary-based immunoassay; type: cell-based
[9] = Metabolic stability in human liver microsomes assessed as intrinsic clearance using pH 7.4 phosphate buffer incubated for 45 mins by LC-MS/MS analysis; type: ADME, Microsome; conditions: pH 7.4, 0.75 h
[10] = Solubility of the compound by chemiluminescent nitrogen detection (CLND) method; type: physicochemical
[11] = Metabolic stability in rat liver microsomes assessed as intrinsic clearance using pH 7.4 phosphate buffer incubated for 45 mins by LC-MS/MS analysis; type: ADME, Microsome; conditions: pH 7.4, 0.75 h
[12] = Lipophilicity, logD of compound at pH 7.4 by Chromatography; type: physicochemical; conditions: buffer
Rattus norvegicus [13] = assay: (§1) Ex vivo protac activity at IAP/RIPK2 in rat assessed as RIPK2 degradation at 0.5 mg/kg, sc measured for 8 to 48 hrs; type: functional; conditions: time 8-48 hrs
Rattus norvegicus [14] = assay: (§2) Ex vivo protac activity at IAP/RIPK2 in rat assessed as inhibition of MDP-induced TNFalpha release at 0.5 mg/kg, sc measured for 8 to 48 hrs; type: functional; conditions: time 8-48 hrs
[15] = molecular target: E3 ubiquitin-protein ligase XIAP/Receptor-interacting serine/threonine-protein kinase 2 (Homo sapiens, UniProt P98170+O43353); assay: Protac activity at IAP/RIPK2 in human THP-1 cells assessed as induction of RIPK2 degradation by measuring decrease in protein level incubated for 18 hrs by capillary-based immunoassay; type: cell-based
[16] = as §1; type: functional; conditions: time 8-48 hrs
[17] = as §2; type: functional; parameters: scale not given: the % may be the effect or the level left; conditions: time 8-48 hrs

Sequence of E3 ubiquitin-protein ligase XIAP (P98170 whole entry): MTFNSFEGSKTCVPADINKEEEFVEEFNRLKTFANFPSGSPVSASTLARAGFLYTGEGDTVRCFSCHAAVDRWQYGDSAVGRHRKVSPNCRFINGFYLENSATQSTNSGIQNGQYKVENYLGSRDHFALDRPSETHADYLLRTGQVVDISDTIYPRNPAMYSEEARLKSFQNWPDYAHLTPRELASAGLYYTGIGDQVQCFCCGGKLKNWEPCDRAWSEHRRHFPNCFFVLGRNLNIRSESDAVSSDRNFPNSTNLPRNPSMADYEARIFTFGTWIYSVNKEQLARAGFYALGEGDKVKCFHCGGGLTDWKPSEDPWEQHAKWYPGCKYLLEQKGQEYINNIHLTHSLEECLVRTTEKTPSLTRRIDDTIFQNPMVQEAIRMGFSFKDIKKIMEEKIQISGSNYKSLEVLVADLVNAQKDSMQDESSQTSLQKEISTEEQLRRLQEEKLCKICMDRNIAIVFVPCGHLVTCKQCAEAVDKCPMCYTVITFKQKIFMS
Sequence of E3 ubiquitin-protein ligase XIAP/Receptor-interacting serine/threonine-protein kinase 2 (Homo sapiens, UniProt O43353+P98170) (P98170 whole entry): as above
Sequence of E3 ubiquitin-protein ligase XIAP/Receptor-interacting serine/threonine-protein kinase 2 (Homo sapiens, UniProt O43353+P98170) (O43353 whole entry): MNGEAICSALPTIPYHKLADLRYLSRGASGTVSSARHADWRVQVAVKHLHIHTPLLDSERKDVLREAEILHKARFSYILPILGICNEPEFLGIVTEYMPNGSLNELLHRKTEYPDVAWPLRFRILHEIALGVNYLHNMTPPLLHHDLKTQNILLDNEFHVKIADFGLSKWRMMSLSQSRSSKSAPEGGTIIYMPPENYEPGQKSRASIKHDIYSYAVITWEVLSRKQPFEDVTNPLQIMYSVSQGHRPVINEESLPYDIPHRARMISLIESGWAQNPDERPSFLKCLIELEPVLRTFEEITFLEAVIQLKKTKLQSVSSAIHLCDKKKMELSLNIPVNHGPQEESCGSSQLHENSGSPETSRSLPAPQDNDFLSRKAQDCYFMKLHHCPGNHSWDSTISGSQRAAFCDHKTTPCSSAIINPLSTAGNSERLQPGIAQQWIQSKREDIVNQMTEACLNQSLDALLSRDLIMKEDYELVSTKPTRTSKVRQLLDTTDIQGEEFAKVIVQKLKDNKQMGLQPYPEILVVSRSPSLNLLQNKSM
Sequence of Receptor-interacting serine/threonine-protein kinase 2 (O43353 whole entry): as above
T1 sequence (O43353 whole entry): as above
T1 sequence (Q96SW2 whole entry): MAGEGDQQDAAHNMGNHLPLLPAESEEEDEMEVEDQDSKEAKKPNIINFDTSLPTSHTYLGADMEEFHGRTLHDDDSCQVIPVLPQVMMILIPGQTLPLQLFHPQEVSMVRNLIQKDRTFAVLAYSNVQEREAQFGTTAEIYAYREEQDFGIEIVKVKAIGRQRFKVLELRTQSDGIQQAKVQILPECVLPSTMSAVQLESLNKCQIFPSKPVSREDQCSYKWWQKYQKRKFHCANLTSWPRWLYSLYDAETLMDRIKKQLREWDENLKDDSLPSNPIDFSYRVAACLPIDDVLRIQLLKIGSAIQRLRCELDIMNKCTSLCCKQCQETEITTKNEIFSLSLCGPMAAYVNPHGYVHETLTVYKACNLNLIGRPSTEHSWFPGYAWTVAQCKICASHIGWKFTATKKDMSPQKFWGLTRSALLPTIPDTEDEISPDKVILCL
T2 sequence (O43353 whole entry): as the sequence (O43353 whole entry) above
T2 sequence (P40337 whole entry): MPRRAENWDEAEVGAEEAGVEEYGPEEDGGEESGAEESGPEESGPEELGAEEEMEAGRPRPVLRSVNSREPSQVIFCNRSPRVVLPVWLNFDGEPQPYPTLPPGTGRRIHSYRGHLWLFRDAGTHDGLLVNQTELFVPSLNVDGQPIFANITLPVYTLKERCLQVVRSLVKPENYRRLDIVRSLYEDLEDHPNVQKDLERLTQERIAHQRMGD
Sequence of E3 ubiquitin-protein ligase XIAP/Receptor-interacting serine/threonine-protein kinase 2 (Homo sapiens, UniProt P98170+O43353) (P98170 whole entry): as the sequence (P98170 whole entry) above
Sequence of E3 ubiquitin-protein ligase XIAP/Receptor-interacting serine/threonine-protein kinase 2 (Homo sapiens, UniProt P98170+O43353) (O43353 whole entry): as the sequence (O43353 whole entry) above

IC50 [1] [nM]	IC50 [2] [nM]	SMILES	also measured
398	31.6	CN[C@@H](C)C(=O)N[C@H](C(=O)N1Cc2cc(OCCOCCOCCOCCOc3cc4ncnc(Nc5n[nH]c(C)c5C)c4cc3S(=O)(=O)C(C)(C)C)ccc2CC1C(=O)N[C@@H]1CCCc2ccccc21)C(C)(C)C (single isomer, unassigned)	–
31.6	12.6	CN[C@@H](C)C(=O)N[C@H](C(=O)N1CCC[C@H]1c1nc(C(=O)c2ccc(F)cc2)cs1)C1CCN(C(=O)c2ccc(N3CCN(CCCOc4cc5ncnc(Nc6n[nH]c(C)c6C)c5cc4S(=O)(=O)C(C)(C)C)CC3)cc2)CC1	–
39.8	15.8	CN[C@@H](C)C(=O)N[C@H](C(=O)N1CCC[C@H]1c1nc(C(=O)c2ccc(F)cc2)cs1)C1CCN(C(=O)c2cnc(N3CCC(CCOc4cc5ncnc(Nc6n[nH]c(C)c6C)c5cc4S(=O)(=O)C(C)(C)C)CC3)nc2)CC1	–
126	10	CN[C@@H](C)C(=O)N[C@H](C(=O)N1CCC[C@H]1c1nc(C(=O)c2ccc(F)cc2)cs1)C1CCN(C(=O)c2ccc(N3CCN(CCOc4cc5ncnc(Nc6n[nH]c(C)c6C)c5cc4S(=O)(=O)C(C)(C)C)CC3)nc2)CC1	CLH [9]: 1.17 mL/min/g; solubility kinetic [10]: > 304 µM; CLH [11]: 0.55 mL/min/g
12.6	–	CN[C@@H](C)C(=O)N[C@H](C(=O)N1C[C@@H](NC(=O)c2cnc(N3CCN(CCCOc4cc5ncnc(Nc6n[nH]c(C)c6C)c5cc4S(=O)(=O)C(C)(C)C)CC3)cn2)CC1C(=O)NC1CCCc2ccccc21)C(C)(C)C (some centres undefined)	–
–	20	CN[C@@H](C)C(=O)N[C@H](C(=O)N1CCC[C@H]1c1nc(C(=O)c2ccc(F)cc2)cs1)C1CCN(C(=O)c2cnc(N3CCN(CCOc4cc5ncnc(Nc6n[nH]c(C)c6C)c5cc4S(=O)(=O)C(C)(C)C)CC3)nc2)CC1	CLH [9]: 0.74 mL/min/g; solubility kinetic [10]: > 311 µM; CLH [11]: 0.48 mL/min/g
2	25.1	CC[C@@H](NC(=O)[C@@H]1C[C@H](NC(=O)COCCOCCOCCOCCOc2cc3nccc(Nc4ccc5scnc5c4)c3cc2S(=O)(=O)C(C)(C)C)CN1C(=O)[C@@H](NC(=O)[C@H](C)NC)C(C)(C)C)c1ccccc1	chromatographic logD [12]: 5.6; solubility kinetic [10]: > 235 µM
12.6	1.58	CN[C@@H](C)C(=O)N[C@H](C(=O)N1CCC[C@H]1c1nc(C(=O)c2ccc(F)cc2)cs1)C1CCN(C(=O)c2cnc(N3CCN(CCCOc4cc5ncnc(Nc6n[nH]c(C)c6C)c5cc4S(=O)(=O)C(C)(C)C)CC3)cn2)CC1	pIC50 [6]: 5.8; IC50 [7]: 39.8 nM; Activity [16]: >70%; Activity [17]: 100%
0.158	2.51	CN[C@H](C)C(=O)N[C@@H](C(=O)N1C[C@@H](NC(=O)c2cnc(N3CCN(CCCOc4cc5ncnc(Nc6n[nH]c(C)c6C)c5cc4S(=O)(=O)C(C)(C)C)CC3)cn2)C[C@H]1c1nc(C(=O)c2ccc(F)cc2)cs1)C(C)(C)C	–

Continued, compound first:

SMILES	IC50 [1] [nM]	IC50 [2] [nM]	also measured
Cc1ncsc1-c1ccc(CNC(=O)[C@@H]2C[C@@H](O)CN2C(=O)[C@@H](NC(=O)COCCOCCOCCOCCOc2cc3nccc(Nc4ccc5scnc5c4)c3cc2S(=O)(=O)C(C)(C)C)C(C)(C)C)cc1	–	–	IC50 [3]: 100 nM; IC50 [4]: 100 nM; DC50 [5]: 1.5 nM
Cc1[nH]nc(Nc2ncnc3cc(OCCCN4CCN(C(=O)c5cnc(N6CCN(C[C@H]7CN[C@H](C)CN7CC(=O)N7CC(C)(C)c8c7cc(Cc7ccc(F)cc7)c(=O)n8C)[C@H](C)C6)nc5)CC4)c(S(=O)(=O)C(C)(C)C)cc23)c1C	7.94	6.31	pIC50 [6]: < 4; IC50 [7]: 12.6 nM
CN[C@@H](C)C(=O)N[C@H](C(=O)N1CCC[C@H]1c1nc(C(=O)c2ccc(F)cc2)cs1)C1CCN(C(=O)c2cnc(N3CCC(COc4cc5ncnc(Nc6n[nH]c(C)c6C)c5cc4S(=O)(=O)C(C)(C)C)CC3)nc2)CC1	10	25.1	–
CC(C)(C)S(=O)(=O)c1cc2c(Nc3ccc4scnc4c3)ccnc2cc1OCCOCCOCCOCCOCC(=O)Nc1cccc2c1CN(C1CCC(=O)NC1=O)C2=O (centres undefined)	–	–	DC50 [8]: 6.2 nM; IC50 [3]: 63.1 nM
CN[C@@H](C)C(=O)N[C@H](C(=O)N1CCC[C@H]1c1nc(C(=O)c2ccc(F)cc2)cs1)C1CCN(C(=O)c2cnc(N3CCN(CCOc4cc5ncnc(Nc6n[nH]c(C)c6C)c5cc4S(=O)(=O)C(C)(C)C)CC3)cn2)CC1	158	15.8	CLH [9]: 0.57 mL/min/g; solubility kinetic [10]: 271 µM (≈ 296 µg/mL); CLH [11]: < 0.46 mL/min/g
CN[C@@H](C)C(=O)N[C@H]1CN(C(=O)c2cnc(N3CCN(CCCOc4cc5ncnc(Nc6n[nH]c(C)c6C)c5cc4S(=O)(=O)C(C)(C)C)CC3)cn2)CC[C@H]2CC[C@@H](C(=O)NC3CCCc4ccccc43)N2C1=O (some centres undefined)	6.31	–	–
CN[C@@H](C)C(=O)N[C@H](C(=O)N1CCC[C@H]1c1nc(C(=O)c2ccc(F)cc2)cs1)C1CCN(C(=O)c2ccc(N3CCN(CCCOc4cc5ncnc(Nc6n[nH]c(C)c6C)c5cc4S(=O)(=O)C(C)(C)C)CC3)nc2)CC1	10	7.94	–
Cc1[nH]nc(Nc2ncnc3cc(OCCCN4CCN(C(=O)c5cnc(N6CCN(C[C@H]7CN[C@H](C)CN7CC(=O)N7CC(C)(C)c8ncc(Cc9ccc(F)cc9)cc87)[C@H](C)C6)nc5)CC4)c(S(=O)(=O)C(C)(C)C)cc23)c1C	25.1	2.51	–
CN[C@@H](C)C(=O)N[C@H](C(=O)N1CCC[C@H]1c1nc(C(=O)c2ccc(F)cc2)cs1)C1CCN(C(=O)COCCOCCOCCOCCOc2cc3nccc(Nc4ccc5scnc5c4)c3cc2S(=O)(=O)C(C)(C)C)CC1	5.01	10	chromatographic logD [12]: 4.5; solubility kinetic [10]: 308 µM (≈ 348 µg/mL)
CN[C@@H](C)C(=O)N[C@H](C(=O)N1CCC[C@H]1c1nc(C(=O)c2ccc(F)cc2)cs1)C1CCN(C(=O)COCCOCCOCCOCCOc2cc3ncnc(Nc4n[nH]c(C)c4C)c3cc2S(=O)(=O)C(C)(C)C)CC1	158	63.1	–
CN[C@H](C)C(=O)N[C@H](C(=O)N1C[C@@H](NC(=O)c2cnc(N3CCN(CCCOc4cc5ncnc(Nc6n[nH]c(C)c6C)c5cc4S(=O)(=O)C(C)(C)C)CC3)cn2)C[C@H]1C(=O)Nc1c(F)cccc1F)C(C)(C)C	–	–	IC50 [7]: 6310 nM; Activity (Rattus norvegicus [13]): Active; Activity (Rattus norvegicus [14]): Active
CN[C@@H](C)C(=O)N[C@H]1CN(C(=O)c2cnc(N3CCN(CCCOc4cc5ncnc(Nc6n[nH]c(C)c6C)c5cc4S(=O)(=O)C(C)(C)C)CC3)cn2)CC[C@H]2CC[C@@H](C(=O)N[C@@H]3CCCc4ccccc43)N2C1=O	0.1	3.16	–
CN[C@@H](C)C(=O)N[C@H](C(=O)N1CCC[C@H]1c1nc(C(=O)c2ccc(F)cc2)cs1)C1CCN(C(=O)c2cnc(N3CCC(CCCOc4cc5ncnc(Nc6n[nH]c(C)c6C)c5cc4S(=O)(=O)C(C)(C)C)CC3)nc2)CC1	31.6	3.16	–
CN[C@@H](C)C(=O)N[C@H](C(=O)N1CCC[C@H]1c1nc(C(=O)c2ccc(F)cc2)cs1)C1CCN(C(=O)c2cnc(N3CCN(CCCOc4cc5ncnc(Nc6n[nH]c(C)c6C)c5cc4S(=O)(=O)C(C)(C)C)CC3)nc2)CC1	7.94	2	–
CN[C@@H](C)C(=O)N[C@H](C(=O)N1Cc2cc(OCCOCCOCCOCCOc3cc4nccc(Nc5ccc6scnc6c5)c4cc3S(=O)(=O)C(C)(C)C)ccc2C[C@@H]1C(=O)N[C@@H]1CCCc2ccccc21)C(C)(C)C	10	10	chromatographic logD [12]: 6.1; DC50 [15]: 0.2 nM; solubility kinetic [10]: 21 µM (≈ 22.9 µg/mL)

From ChEMBL document CHEMBL4831517, “Optimization of a Series of RIPK2 PROTACs” (J Med Chem, 2021)
